Experimental findings from PubChem BioAssay AID1949 (Southern Research Institute, 2009) are described below.

Values after ≈ are worked out from the molar mass of the structure shown. Results filed as inconclusive are left out. Active and inactive are the calls of the source. No rule for the calls is given here.

The assay relates to M. tuberculosis H37Rv growth inhibition. The experiment in a line: Mycobacterium tuberculosis H37Rv growth inhibition, cell based, confirmatory dose response (AID 1949).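 Also: bacteria grown 7 days with compound before Alamar blue readout.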
Take `COC(=O)COc1ccc(NC(=O)COc2cccc(C)c2)cc1`: the IC50 was 0.77 µg/mL (≈ 2.34 µM).
For the molecule `COC(=O)COc1ccc(NC(=O)COc2ccc(C)cc2C)cc1`, the IC50 was < 0.1 µg/mL.
`CC(C)C1C(c2ccccc2)NC(c2ccccc2)CC1(O)C#Cc1ccccc1` (stereo unspecified): the IC50 is 9.22 µg/mL (≈ 23.3 µM).
As for `CCN1C(=O)c2cccc3cc([N+](=O)[O-])cc(c23)C1=O`, the IC50 was < 0.1 µg/mL.
The result for `CC(=O)c1ccc(NCCC(=O)c2ccco2)cc1` reads 2.8 µg/mL (≈ 10.9 µM); that for `Cc1ccc(-c2nc(C#N)c(NCCCn3ccnc3)o2)cc1`, > 50 µg/mL (inactive).
Regarding `Cc1ccc(C(=O)Nc2ccc(C(F)(F)F)cc2)s1`, the IC50 was 4.67 µg/mL (≈ 16.4 µM).
Consider `Cc1ccc(-n2c(=O)oc3ccc(Cl)cc3c2=O)cc1Cl`, for which the IC50 was 1.08 µg/mL (≈ 3.35 µM).
The result for `O=c1c2oc3cccc4c3n(c=2c(=O)c2ccccc12)CCC4` reads 5.4 µg/mL (≈ 17.8 µM); that for `CCN(CC)CCSc1nc2sc3c(c2c(=O)n1-c1ccc(OC)cc1)CCCC3`, > 50 µg/mL (inactive); that for `CCOc1ccc(NCCC(=O)c2ccc3c(c2)OCO3)cc1`, 3.32 µg/mL (≈ 10.6 µM).
On to `CCOc1ccc(NC(=O)c2c(NC(=O)CNCCN3CCOCC3)sc3c2CCC3)cc1`, for which the IC50 is 1.33 µg/mL (≈ 2.81 µM).
Take `COc1ccc(CNc2ccc3c(c2)ncn3-c2ccccc2)cc1OC`: the IC50 was 8.63 µg/mL (≈ 24 µM).
The result for `CC(=O)c1c(C)n([O-])c2cc(Cl)c(Cl)cc2[n+]1=O` reads 5.48 µg/mL (≈ 19.1 µM).
With `CN1CCN(c2ccc(NC(=O)c3ccc(-c4cccc([N+](=O)[O-])c4)o3)cc2)CC1`, the IC50 is 8.66 µg/mL (≈ 21.3 µM).
`O=C(Cc1ccc(F)cc1)Nc1ccc(Cl)c(C(F)(F)F)c1`: the IC50 was 1.2 µg/mL (≈ 3.62 µM).
Consider `CC(CCc1ccccc1)Nc1cc(N2CCNCC2)ccc1[N+](=O)[O-]` (stereo unspecified), for which the IC50 is > 50 µg/mL (inactive).
The result for `CCOC(=O)c1c(NC(=O)c2c(F)c(F)c(F)c(F)c2F)sc(C(N)=O)c1C` reads < 0.1 µg/mL; that for `COC(=O)c1ccc(OC(=O)c2c(F)c(F)c(F)c(F)c2F)cc1`, 9.14 µg/mL (≈ 26.4 µM); that for `CN1CCN(c2ccc(NC(=O)c3ccc(-c4ccc(Br)cc4)o3)cc2)CC1`, 2.94 µg/mL (≈ 6.68 µM).
Turning to `CN(C)C(=S)NC(=O)c1cccc(Cl)c1`, the IC50 is 4.63 µg/mL (≈ 19.1 µM).
The result for `O=[N+]([O-])c1ccccc1S(=O)(=O)Nc1ccc(S(=O)(=O)Nc2nccs2)cc1` reads 3.8 µg/mL (≈ 8.63 µM); that for `CC(=O)Oc1cccc2ccc(/C=C/c3ccc(F)cc3)nc12`, < 0.1 µg/mL; that for `Cc1ccc(SCC(=O)Nc2ccc(C)c(C)c2)cc1`, 3.4 µg/mL (≈ 11.9 µM).
As for `C#CCSc1nnc(-c2ccc([N+](=O)[O-])cc2)o1`, the IC50 is < 0.1 µg/mL.
`O=C(CC(Nc1ccc(F)cc1)c1ccccc1)c1ccccc1` (stereo unspecified): the IC50 was 9.26 µg/mL (≈ 29 µM).
Turning to `CC(Sc1nnc(N)s1)C(=O)Nc1nc2c(s1)CCCC2` (stereo unspecified), the IC50 is 0.75 µg/mL (≈ 2.2 µM).
Next, `Cc1ccc(SC(C)C(=O)Nc2ccc(Cl)c(Cl)c2)cc1` (stereo unspecified): 12.3 µg/mL (≈ 36.1 µM); `N#Cc1cc(-c2nc3ccccc3[nH]2)c(N)n2c1nc1ccccc12`: 11.5 µg/mL (≈ 35.5 µM).
Next, `Cc1ccccc1NC(=O)C(Cc1ccccc1)NC(=O)c1ccccc1` (stereo unspecified): 37.5 µg/mL (≈ 105 µM); `O=C(Nc1ccc(-c2cc3ccccc3oc2=O)cc1)c1cc(-n2cnnc2)ccc1Cl`: 6.92 µg/mL (≈ 15.6 µM); `N#C/C(=C\C=C\c1ccco1)c1nc2c(s1)CCCC2`: 9.33 µg/mL (≈ 33 µM).
With `c1ccc(-c2nnc3sc(-c4cc5ccccc5o4)nn23)cc1`, the IC50 is 4.89 µg/mL (≈ 15.4 µM).
As to `O=Cc1cccc(OCC(=O)Nc2cccc(Cl)c2)c1`, the IC50 is 45 µg/mL (≈ 155 µM).
For `CC(=O)Oc1ccc2nc(-c3ccc(C)c(C)c3)oc(=O)c2c1`, the IC50 was > 50 µg/mL (inactive).
Regarding `CCCn1nnc(NC(=O)COc2ccc(C3CCCCC3)cc2)n1`, the IC50 was 0.64 µg/mL (≈ 1.86 µM).
Take `CC1(C)CC(=O)C2=C(C1)NC(Nc1nc3ccccc3o1)=NC2c1cccc(Br)c1` (stereo unspecified): the half-inhibitory concentration (IC50) was 3.24 µg/mL (≈ 6.96 µM).
As to `O=C(/C=C/c1ccccc1OC(=O)c1cccnc1)c1ccc(Cl)cc1`, the IC50 was 5.61 µg/mL (≈ 15.4 µM).
For `Cc1ccc(-c2cc(C(=O)N3CCCc4ccccc43)no2)cc1`, the IC50 was 9.33 µg/mL (≈ 29.3 µM).
In the case of `Cc1cc(C)cc(NC(=O)COc2cccc(C=O)c2)c1`, the IC50 is 3.3 µg/mL (≈ 11.6 µM).
As for `O=C(Oc1c(Cl)cc(Cl)c2cccnc12)c1cccc([N+](=O)[O-])c1`, the IC50 is 6.13 µg/mL (≈ 16.9 µM).
Regarding `Cc1cccc(C)c1OCC(=O)N/N=C/c1ccc(O)c([N+](=O)[O-])c1`, the IC50 was 0.36 µg/mL (≈ 1.05 µM).
In the case of `Cc1ccc(C(=O)Nc2ccc(N3CCN(C)CC3)cc2)cc1Cl`, the half-maximal inhibitory concentration (IC50) was 46.2 µg/mL (≈ 134 µM).
Next, `O=C(c1cccc(Cl)c1)N1N=C(c2ccc(Cl)cc2)CC1(O)C(F)(F)F` (stereo unspecified): 3.82 µg/mL (≈ 9.47 µM); `N#CCCN(Cc1ccccc1)C(=S)NC(=O)c1ccccc1`: 2.51 µg/mL (≈ 7.76 µM).
On to `Cc1ccc(C(=O)Nc2ccc([N+](=O)[O-])cc2)s1`, for which the IC50 was < 0.1 µg/mL.
With `COc1cc(CNC(C)c2ccccc2)cc(Br)c1OCc1ccccc1` (stereo unspecified), the IC50 is 6.21 µg/mL (≈ 14.6 µM).
Take `CC(C)C(=O)N1CCN(c2ccc(NC(=O)c3ccc([N+](=O)[O-])o3)cc2)CC1`: the IC50 was 0.21 µg/mL (≈ 0.543 µM).
As for `O=C(NC(=S)Nc1ccccc1N1CCCC1)c1cccc2ccccc12`, the IC50 is 0.36 µg/mL (≈ 0.959 µM).
The result for `CCOc1cc(CNCCO)cc(Br)c1OCc1ccc(Cl)cc1Cl` reads 1.54 µg/mL (≈ 3.43 µM); that for `COC(=O)COc1ccc(Br)cc1C=O`, 12.4 µg/mL (≈ 45.5 µM).
